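The compound was tested at five concentrations on cells cultured in 96-well plates, with a 48-hour exposure period. Abbreviation: GI50, concentration required for 50% inhibition of growth.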 Calls of active or inactive are those of the source. Rule as the data show it: active = GI50 up to about 1.1 µM and inactive = higher.
Key:
Experiment in all cases: growth of human tumour cells (NCI), 48 h
COLO 205 = system: COLO 205
EKVX = system: EKVX
HCC 2998 = system: HCC 2998
HCT-15 = system: HCT-15
HL-60 = system: HL-60
IGROV-1 = system: IGROV-1
MOLT-4 = system: MOLT-4
NCI-H226 = system: NCI-H226
NCI-H460 = system: NCI-H460
NCI-H522 = system: NCI-H522
RPMI-8226 = system: RPMI-8226
SF-268 = system: SF-268
SF-295 = system: SF-295
SK-MEL-28 = system: SK-MEL-28
SN12C = system: SN12C
UACC-62 = system: UACC-62
UO-31 = system: UO-31
PC-3 = system: PC-3
T47D = system: T47D
MDA-N = system: MDA-N

Measured: GI50

CC12CCC(C(=O)N3CC=CCC3)(OC1=O)C2(C)C (stereo not given)
inactive: COLO 205 > 100 µM | EKVX > 100 µM | HCC 2998 > 69 µM | HL-60 > 100 µM | IGROV-1 > 100 µM | MOLT-4 > 100 µM | NCI-H226 > 100 µM | NCI-H460 > 100 µM | NCI-H522 > 100 µM | RPMI-8226 > 100 µM | SF-268 > 100 µM | SF-295 > 100 µM | SK-MEL-28 > 100 µM | SN12C > 100 µM | UACC-62 > 100 µM | UO-31 > 100 µM
> 100 µM: HCT-15

CCCC(=O)OCC1OC(n2ccc(N)nc2=O)C(OC(=O)CCC)C1OC(=O)CCC (stereo not given)
72.4 µM: HCT-15
inactive: COLO 205 > 100 µM | EKVX 2.25 µM | HCC 2998 > 100 µM | HL-60 1.67 µM | IGROV-1 > 63 µM | NCI-H226 88.5 µM | NCI-H460 2.74 µM | NCI-H522 10.6 µM | RPMI-8226 > 100 µM | SF-268 > 42.4 µM | SF-295 > 73.5 µM | SK-MEL-28 15.1 µM | SN12C 16.5 µM | UACC-62 26.4 µM | UO-31 21.6 µM
active: MOLT-4 0.33 µM

COC(=O)[C@H](Cc1ccccc1)NC(=O)/C(=C/C(C)C)NC(=O)[C@H](CCSC)NC=O
> 100 µM: HCT-15
inactive: COLO 205 > 100 µM | EKVX > 100 µM | HCC 2998 > 100 µM | HL-60 > 100 µM | IGROV-1 > 100 µM | MOLT-4 > 100 µM | NCI-H226 > 100 µM | NCI-H460 > 100 µM | NCI-H522 > 100 µM | RPMI-8226 > 100 µM | SF-268 > 100 µM | SF-295 > 100 µM | SK-MEL-28 > 100 µM | SN12C > 100 µM | UACC-62 > 100 µM | UO-31 > 100 µM

COC(=O)c1ccc(/N=N/N(C)COc2ccc(Br)cc2)cc1
inactive: COLO 205 > 100 µM | EKVX > 75.2 µM | HCC 2998 31.7 µM | HL-60 20.2 µM | IGROV-1 > 100 µM | MOLT-4 26.6 µM | NCI-H226 > 100 µM | NCI-H460 40.6 µM | NCI-H522 43.5 µM | RPMI-8226 24.5 µM | SF-268 > 75.5 µM | SF-295 > 60.8 µM | SK-MEL-28 > 100 µM | SN12C 68.5 µM | UACC-62 60 µM | UO-31 > 100 µM
> 89.7 µM: HCT-15

Nc1ccc(S(=O)(=O)C23CC4CC(CC(C4)C2)C3)cc1
> 100 µM: HCT-15
inactive: COLO 205 74.1 µM | EKVX > 100 µM | HCC 2998 > 100 µM | HL-60 27.2 µM | IGROV-1 > 100 µM | NCI-H226 > 100 µM | NCI-H460 74.3 µM | NCI-H522 > 100 µM | PC-3 51.5 µM | RPMI-8226 55.3 µM | SF-268 > 100 µM | SF-295 > 100 µM | SK-MEL-28 > 100 µM | SN12C > 100 µM | T47D 34.1 µM | UACC-62 > 100 µM | UO-31 > 100 µM

COC(=O)C(C(=O)C(=O)Nc1c(C)cccc1C(C)(C)C)c1nc2ccc(Cl)cc2nc1O (stereo not given)
inactive: EKVX 49.8 µM | HCC 2998 > 100 µM | IGROV-1 25.8 µM | MOLT-4 > 100 µM | NCI-H226 > 100 µM | NCI-H460 > 100 µM | NCI-H522 94.2 µM | PC-3 > 100 µM | RPMI-8226 > 100 µM | SF-268 > 100 µM | SF-295 > 100 µM | SK-MEL-28 > 100 µM | SN12C > 100 µM | T47D > 100 µM | UACC-62 > 100 µM | UO-31 > 100 µM
> 100 µM: HCT-15

CC(C)Cc1cccc(C(C)C)c1NC(=O)CCC(=O)N/N=C1\C(=N/NC(=O)CCC(=O)Nc2c(C(C)C)cccc2C(C)C)C(c2ccc3c(c2)OCO3)Oc2ccccc21 (stereo not given)
17.1 µM: HCT-15
inactive: COLO 205 > 100 µM | EKVX 9.64 µM | HCC 2998 > 100 µM | HL-60 34.2 µM | IGROV-1 29.5 µM | MOLT-4 57.3 µM | NCI-H226 > 100 µM | NCI-H460 27.9 µM | NCI-H522 19.5 µM | RPMI-8226 59.2 µM | SF-268 67.8 µM | SF-295 48 µM | SK-MEL-28 > 100 µM | SN12C 43.2 µM | UACC-62 78.3 µM | UO-31 43.6 µM

O=C(Cc1ccccc1)NN1C(=O)C(Cl)C1c1ccc(Cl)cc1 (stereo not given)
inactive: COLO 205 > 100 µM | EKVX > 100 µM | HCC 2998 > 100 µM | HL-60 92.7 µM | IGROV-1 > 100 µM | MOLT-4 30.6 µM | NCI-H226 > 100 µM | NCI-H460 > 100 µM | NCI-H522 > 100 µM | RPMI-8226 51.4 µM | SF-268 > 100 µM | SF-295 > 100 µM | SK-MEL-28 > 100 µM | SN12C > 100 µM | UACC-62 > 100 µM | UO-31 62.4 µM
> 100 µM: HCT-15

CC1=C(C(=O)NCCc2ccccc2)CC(C(=O)NCCc2ccccc2)=C(C)N1
inactive: COLO 205 > 100 µM | EKVX 65.3 µM | HCC 2998 > 100 µM | HL-60 31.7 µM | IGROV-1 54.8 µM | MOLT-4 74 µM | NCI-H226 > 100 µM | NCI-H460 82.4 µM | NCI-H522 47.4 µM | PC-3 37.2 µM | RPMI-8226 45.7 µM | SF-268 61 µM | SF-295 > 100 µM | SN12C > 100 µM | T47D 64.6 µM | UACC-62 > 100 µM | UO-31 65.8 µM
> 100 µM: HCT-15

CC#N.O[C@@H]1CCCC[C@@H]1O.O[C@@H]1CCCC[C@@H]1O.[TeH2]
18.8 µM: HCT-15
inactive: COLO 205 84.3 µM | EKVX > 100 µM | HCC 2998 > 100 µM | HL-60 15.4 µM | IGROV-1 26.9 µM | MOLT-4 13.8 µM | NCI-H226 40.6 µM | NCI-H460 3.72 µM | NCI-H522 37.3 µM | RPMI-8226 37.2 µM | SF-268 69.2 µM | SF-295 17.3 µM | SK-MEL-28 72.3 µM | SN12C 24.2 µM | UACC-62 > 100 µM | UO-31 57.1 µM

COc1ccc(-c2cc(O)c3cc(OC)c(OC)cc3n2)cc1OC
> 100 µM: HCT-15
inactive: COLO 205 > 100 µM | EKVX > 100 µM | HCC 2998 > 100 µM | IGROV-1 > 100 µM | MDA-N > 100 µM | MOLT-4 > 100 µM | NCI-H226 > 100 µM | NCI-H460 > 100 µM | NCI-H522 > 100 µM | PC-3 > 100 µM | RPMI-8226 > 100 µM | SF-268 > 100 µM | SF-295 > 100 µM | SK-MEL-28 > 100 µM | SN12C > 100 µM | UACC-62 > 100 µM | UO-31 > 100 µM

— ChEMBL document CHEMBL1201862, “PubChem BioAssay data set” (2004)
